Assay results as given in PubChem BioAssay (NCI).
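Cells were grown in 96-well plates and exposed to each compound for 48 hours at five concentrations; endpoints were interpolated linearly between bracketing concentrations, or set to the highest concentration if not reached. At the TGI there is no net growth.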

Columns and labels:
Test in all cases: growth of human tumour cells (NCI), 48 h
UACC-62 melanoma = test system: UACC-62 melanoma
MOLT-4 leukemia = test system: MOLT-4 leukemia
EKVX NSCLC = test system: EKVX NSCLC
SK-MEL-5 melanoma = test system: SK-MEL-5 melanoma
786-0 renal = test system: 786-0 renal
RPMI-8226 leukemia = test system: RPMI-8226 leukemia
UACC-257 melanoma = test system: UACC-257 melanoma
MDA-N = test system: MDA-N
SNB-75 CNS = test system: SNB-75 CNS
SW-620 colon = test system: SW-620 colon
HCT-116 colon = test system: HCT-116 colon
A498 renal = test system: A498 renal
RXF 393 renal = test system: RXF 393 renal
K-562 leukemia = test system: K-562 leukemia
PC-3 prostate = test system: PC-3 prostate
MDA-MB-231 breast = test system: MDA-MB-231 breast
SK-MEL-28 melanoma = test system: SK-MEL-28 melanoma
COLO 205 colon = test system: COLO 205 colon
OVCAR-5 ovarian = test system: OVCAR-5 ovarian
HT29 colon = test system: HT29 colon
TK-10 renal = test system: TK-10 renal
SK-MEL-2 melanoma = test system: SK-MEL-2 melanoma
MALME-3M melanoma = test system: MALME-3M melanoma
U251 CNS = test system: U251 CNS
NCI-H226 lung = test system: NCI-H226 lung
HOP-62 NSCLC = test system: HOP-62 NSCLC
HCT-15 colon = test system: HCT-15 colon
M14 melanoma = test system: M14 melanoma
HCC-2998 colon = test system: HCC-2998 colon
UO-31 renal = test system: UO-31 renal
MCF7 breast = test system: MCF7 breast
NCI-H23 lung = test system: NCI-H23 lung
OVCAR-8 ovarian = test system: OVCAR-8 ovarian
HS 578T breast = test system: HS 578T breast
KM12 colon = test system: KM12 colon
SR leukemia = test system: SR leukemia
IGROV1 ovarian = test system: IGROV1 ovarian
HL-60(TB) leukemia = test system: HL-60(TB) leukemia
SN12C renal = test system: SN12C renal
HOP-92 NSCLC = test system: HOP-92 NSCLC
ACHN renal = test system: ACHN renal
SNB-19 CNS = test system: SNB-19 CNS
NCI-H460 lung = test system: NCI-H460 lung
BT-549 breast = test system: BT-549 breast
A549 NSCLC = test system: A549 NSCLC
SF-295 CNS = test system: SF-295 CNS
NCI-H522 lung = test system: NCI-H522 lung
CAKI-1 renal = test system: CAKI-1 renal
NCI/ADR-RES ovarian = test system: NCI/ADR-RES ovarian
DU-145 prostate = test system: DU-145 prostate
LOX IMVI melanoma = test system: LOX IMVI melanoma
MDA-MB-435 = test system: MDA-MB-435
CCRF-CEM leukemia = test system: CCRF-CEM leukemia
SF-268 CNS = test system: SF-268 CNS
SF-539 CNS = test system: SF-539 CNS
OVCAR-3 ovarian = test system: OVCAR-3 ovarian
SK-OV-3 ovarian = test system: SK-OV-3 ovarian
OVCAR-4 ovarian = test system: OVCAR-4 ovarian

## CCOC(=O)C1(C)CCCc2sc(N)c(C#N)c21 (centres undefined)
UACC-62 melanoma
  TGI: > 100 µM
MOLT-4 leukemia
  TGI: > 100 µM
EKVX NSCLC
  TGI: > 100 µM
SK-MEL-5 melanoma
  TGI: > 100 µM
786-0 renal
  TGI: > 100 µM
RPMI-8226 leukemia
  TGI: > 100 µM
UACC-257 melanoma
  TGI: > 100 µM
MDA-N
  TGI: > 100 µM
SNB-75 CNS
  TGI: > 100 µM
SW-620 colon
  TGI: > 100 µM
HCT-116 colon
  TGI: > 100 µM
A498 renal
  TGI: > 100 µM
RXF 393 renal
  TGI: > 100 µM
K-562 leukemia
  TGI: > 100 µM
PC-3 prostate
  TGI: > 100 µM
MDA-MB-231 breast
  TGI: > 100 µM
SK-MEL-28 melanoma
  TGI: > 100 µM
COLO 205 colon
  TGI: > 100 µM
OVCAR-5 ovarian
  TGI: > 100 µM
HT29 colon
  TGI: > 100 µM
TK-10 renal
  TGI: > 100 µM
SK-MEL-2 melanoma
  TGI: > 100 µM
MALME-3M melanoma
  TGI: > 100 µM
U251 CNS
  TGI: > 100 µM
NCI-H226 lung
  TGI: > 100 µM
HOP-62 NSCLC
  TGI: > 100 µM
HCT-15 colon
  TGI: > 100 µM
M14 melanoma
  TGI: > 100 µM
HCC-2998 colon
  TGI: > 100 µM
UO-31 renal
  TGI: > 100 µM
MCF7 breast
  TGI: > 100 µM
NCI-H23 lung
  TGI: > 100 µM
OVCAR-8 ovarian
  TGI: > 100 µM
HS 578T breast
  TGI: > 100 µM
KM12 colon
  TGI: > 100 µM
SR leukemia
  TGI: > 100 µM
IGROV1 ovarian
  TGI: > 100 µM
HL-60(TB) leukemia
  TGI: > 100 µM
SN12C renal
  TGI: > 100 µM
HOP-92 NSCLC
  TGI: > 100 µM
ACHN renal
  TGI: > 100 µM
SNB-19 CNS
  TGI: > 100 µM
NCI-H460 lung
  TGI: > 100 µM
BT-549 breast
  TGI: > 100 µM
A549 NSCLC
  TGI: > 100 µM

## O=[N+]([O-])c1ccc2sc(C=Nc3ccc(O)cc3)cc2c1
UACC-62 melanoma
  TGI: 61.9 µM
MOLT-4 leukemia
  TGI: 44.6 µM
SF-295 CNS
  TGI: > 100 µM
EKVX NSCLC
  TGI: > 100 µM
SK-MEL-5 melanoma
  TGI: 68 µM
NCI-H522 lung
  TGI: > 100 µM
786-0 renal
  TGI: 40.4 µM
RPMI-8226 leukemia
  TGI: 79.7 µM
UACC-257 melanoma
  TGI: 56.2 µM
MDA-N
  TGI: 80.6 µM
SNB-75 CNS
  TGI: 49.9 µM
SW-620 colon
  TGI: 43.9 µM
CAKI-1 renal
  TGI: 43.5 µM
HCT-116 colon
  TGI: > 100 µM
A498 renal
  TGI: > 100 µM
NCI/ADR-RES ovarian
  TGI: > 100 µM
RXF 393 renal
  TGI: 57.9 µM
DU-145 prostate
  TGI: > 100 µM
K-562 leukemia
  TGI: 43 µM
PC-3 prostate
  TGI: > 100 µM
MDA-MB-231 breast
  TGI: 44.5 µM
SK-MEL-28 melanoma
  TGI: > 100 µM
COLO 205 colon
  TGI: > 100 µM
OVCAR-5 ovarian
  TGI: > 100 µM
HT29 colon
  TGI: > 100 µM
LOX IMVI melanoma
  TGI: 51.2 µM
MDA-MB-435
  TGI: 34.3 µM
TK-10 renal
  TGI: > 100 µM
SK-MEL-2 melanoma
  TGI: 59 µM
MALME-3M melanoma
  TGI: > 100 µM
U251 CNS
  TGI: 42.7 µM
CCRF-CEM leukemia
  TGI: 59.6 µM
SF-268 CNS
  TGI: > 100 µM
HOP-62 NSCLC
  TGI: > 100 µM
HCT-15 colon
  TGI: > 100 µM
M14 melanoma
  TGI: > 100 µM
HCC-2998 colon
  TGI: 56.6 µM
UO-31 renal
  TGI: > 100 µM
MCF7 breast
  TGI: 47.7 µM
NCI-H23 lung
  TGI: > 100 µM
OVCAR-8 ovarian
  TGI: > 100 µM
SF-539 CNS
  TGI: 55.4 µM
HS 578T breast
  TGI: 66.4 µM
OVCAR-3 ovarian
  TGI: 28.6 µM
KM12 colon
  TGI: > 100 µM
SR leukemia
  TGI: 97 µM
IGROV1 ovarian
  TGI: > 100 µM
HL-60(TB) leukemia
  TGI: 53.2 µM
SN12C renal
  TGI: > 100 µM
HOP-92 NSCLC
  TGI: > 100 µM
ACHN renal
  TGI: > 100 µM
SNB-19 CNS
  TGI: > 100 µM
SK-OV-3 ovarian
  TGI: > 100 µM
NCI-H460 lung
  TGI: > 100 µM
BT-549 breast
  TGI: > 100 µM
A549 NSCLC
  TGI: > 100 µM

## O=C1CSC(c2ccc([N+](=O)[O-])cc2)N1c1nc(-c2ccc3c(c2)CCCC3)cs1 (centres undefined)
UACC-62 melanoma
  TGI: > 100 µM
MOLT-4 leukemia
  TGI: > 100 µM
SF-295 CNS
  TGI: > 100 µM
EKVX NSCLC
  TGI: > 100 µM
SK-MEL-5 melanoma
  TGI: > 100 µM
NCI-H522 lung
  TGI: > 100 µM
786-0 renal
  TGI: > 100 µM
RPMI-8226 leukemia
  TGI: > 100 µM
UACC-257 melanoma
  TGI: > 100 µM
MDA-N
  TGI: > 100 µM
SNB-75 CNS
  TGI: > 100 µM
SW-620 colon
  TGI: > 100 µM
CAKI-1 renal
  TGI: > 100 µM
HCT-116 colon
  TGI: > 100 µM
A498 renal
  TGI: > 100 µM
NCI/ADR-RES ovarian
  TGI: > 100 µM
RXF 393 renal
  TGI: > 100 µM
DU-145 prostate
  TGI: > 100 µM
K-562 leukemia
  TGI: > 100 µM
PC-3 prostate
  TGI: > 100 µM
MDA-MB-231 breast
  TGI: > 100 µM
SK-MEL-28 melanoma
  TGI: > 100 µM
COLO 205 colon
  TGI: > 100 µM
OVCAR-5 ovarian
  TGI: > 100 µM
HT29 colon
  TGI: > 100 µM
LOX IMVI melanoma
  TGI: > 100 µM
MDA-MB-435
  TGI: > 100 µM
TK-10 renal
  TGI: > 100 µM
SK-MEL-2 melanoma
  TGI: > 100 µM
MALME-3M melanoma
  TGI: > 100 µM
U251 CNS
  TGI: > 100 µM
NCI-H226 lung
  TGI: > 100 µM
SF-268 CNS
  TGI: > 100 µM
HOP-62 NSCLC
  TGI: > 100 µM
HCT-15 colon
  TGI: > 100 µM
HCC-2998 colon
  TGI: > 100 µM
UO-31 renal
  TGI: > 100 µM
MCF7 breast
  TGI: > 100 µM
NCI-H23 lung
  TGI: > 100 µM
OVCAR-8 ovarian
  TGI: > 100 µM
SF-539 CNS
  TGI: 81.8 µM
HS 578T breast
  TGI: > 100 µM
OVCAR-3 ovarian
  TGI: > 100 µM
KM12 colon
  TGI: > 100 µM
SR leukemia
  TGI: > 100 µM
IGROV1 ovarian
  TGI: > 100 µM
HL-60(TB) leukemia
  TGI: > 100 µM
SN12C renal
  TGI: > 100 µM
OVCAR-4 ovarian
  TGI: > 100 µM
ACHN renal
  TGI: > 100 µM
SNB-19 CNS
  TGI: > 100 µM
NCI-H460 lung
  TGI: > 100 µM
BT-549 breast
  TGI: > 100 µM
